What was measured:
[1] = solubility study of midazolam base in aqueous solution (pH-dependent); assay type: physicochemical; conditions: midazolam 2 mg/mL in a solution of 0.9% NaCl
Protocol: The solubility of midazolam is less than 0.1 mg/mL at neutral pH and it increases considerably in acidic media. A solubility study has been performed to evaluate the use of midazolam base in the proposed formulation. Since the solubility of midazolam is pH-dependent, the purpose of this study was to evaluate the pH value at which midazolam becomes soluble in aqueous solution. Midazolam at a concentration of 2 mg/mL is soluble in a solution of 0.9% NaCl when the pH reaches a value of about 3.2 pH. The solubility increases at lower pHs. The desired pH of the formulation is about from about 2.5 to about 3.5, preferably 2.8 to 3.2 and more preferably about pH 3. Sufficient acid is added to the solution to achieve the desired pH. Any pharmaceutically acid may be used. Preferably the acid is a pharmaceutically acceptable mineral acid, most preferably hydrochloric acid. If necessary a pharmaceutically acceptable base may be used to raise the pH if needed. The preferred bases are pharmaceutically acceptable inorganic bases such as sodium hydroxide and potassium hydroxide. Sodium hydroxide is the preferred base.

[2] = cited from earlier work
[3] = neutral pH; cited from earlier work

**Q.** Which results are given for Cc1ncc2n1-c1ccc(Cl)cc1C(c1ccccc1F)=NC2 [Midazolam]?
**A.** pH value at which midazolam becomes soluble [1]: about 3.2 pH; storage of bag ([2]; isotonic saline IV bag, room temperature): can be stored overnight at room temperature; useful life ([2]; midazolam in lactate Ringer's solution in IV bag): 4 h; solubility of midazolam [3]: less than 0.1 mg/mL
